Data set [1] concerns Cyperus serotinus, Rottb. Nature of the data set: Preemergence weed control under flooded paddy conditions, CYPSE (Flatsedge). The format is in vivo. The settings on record: preemergence, rated three to four weeks after treatment.
For another data set, the system named is Sagittaria pygmaea, L. Nature of the data set: Preemergence weed control under flooded paddy conditions, SAGPY (Arrowhead (Pygmaea)). Type of data set: in vivo. The settings on record: preemergence, flooded paddy, rated three to four weeks after treatment.
For data set [2], the system named is Oryza sativa, (L.) Tebonnet. Nature of the data set: Rice tolerance to post-transplant applications under flooded paddy conditions (Example 187), ORYSAT (Rice, Tebonnet). The settings on record: rated three to four weeks after treatment.
Data set [3] has as its system Echinochloa oryzoides (Ard.) Fritsch. Description: Preemergence weed control under flooded paddy conditions, ECHORC (Watergrass (Calif.)). The format is in vivo. The settings on record: preemergence, flooded paddy, rated three to four weeks after treatment.
Another data set concerns Cyperus iria. Nature of the data set: Preemergence weed control under flooded paddy conditions, CYPIR (Rice Flatsedge). The format is in vivo. The settings on record: preemergence, flooded paddy, rated three to four weeks after treatment.
In data set [4] the test system is Monochoria vaginalis, Presl. Nature of the data set: Preemergence weed control under flooded paddy conditions, MOOVA (Monochoria). The format is in vivo. The settings on record: preemergence, flooded paddy, rated three to four weeks after treatment.

Molecules are shown by their SMILES.

On to `Cn1c(C(F)(F)F)cc(=O)n(-c2ccc3snc(C(=O)NS(=O)(=O)Cc4ccc(Cl)cc4)c3c2)c1=O` [Example 468, 1,2-Benzisothiazole-3-carboxamide, N-[(p-chlorobenzyl)sulfonyl]-5-[3,6-dihydro-3-methyl-2,6-dioxo-4-(trifluoromethyl)-1(2H)-pyrimidinyl]-], for which the CYPSE herbicidal rating in data set [1] (0.0320 kg/ha) is given as 2.0; in data set [1] (0.0620 kg/ha) it was 6.0; in data set [1] (0.1250 kg/ha), 7.0; in data set [1] (0.2500 kg/ha) it was 5.0. In addition, the SAGPY herbicidal rating with Sagittaria pygmaea, L. (0.0320 kg/ha) is listed as 3.0; in the data set with Sagittaria pygmaea, L. (0.0620 kg/ha), 4.0; in the data set on Sagittaria pygmaea, L. (0.1250 kg/ha) it was 4.0; in the data set on Sagittaria pygmaea, L. (0.2500 kg/ha), 5.0. For the same compound, the “ORYSAT herbicidal rating (rice tolerance)” value (shortened to “ORYSAT herbicidal rating”) in data set [2] (0.0320 kg/ha) is 3.0; in data set [2] (0.0620 kg/ha) it was 3.0; in data set [2] (0.1250 kg/ha) it was 5.0; in data set [2] (0.2500 kg/ha), 5.0. Also, the ECHORC herbicidal rating came out at 7.0 in data set [3] (0.0320 kg/ha), 7.0 in data set [3] (0.0620 kg/ha), 9.0 in data set [3] (0.1250 kg/ha) and 9.0 in data set [3] (0.2500 kg/ha). Moreover, the CYPIR herbicidal rating with Cyperus iria (0.0320 kg/ha) is recorded as 5.0; with Cyperus iria (0.0620 kg/ha), 6.0; with Cyperus iria (0.1250 kg/ha), 6.0; in the data set on Cyperus iria (0.2500 kg/ha), 5.0. The MOOVA herbicidal rating in data set [4] (0.0320 kg/ha) was 5.0; in data set [4] (0.0620 kg/ha) it was 6.0; in data set [4] (0.1250 kg/ha) it was 7.0; in data set [4] (0.2500 kg/ha), 5.0.

Turning to `Cn1c(C(F)(F)F)cc(=O)n(-c2ccc3snc(C(=O)NO)c3c2)c1=O` [Example 471, 1,2-Benzisothiazole-3-carbohydroxamic acid, 5-[3,6-dihydro-3-methyl-2,6-dioxo-4-(trifluoromethyl)-1(2H)-pyrimidinyl]-], the CYPSE herbicidal rating in data set [1] (0.0320 kg/ha) worked out at 3.0; in data set [1] (0.2500 kg/ha) it was 7.0. In addition, the SAGPY herbicidal rating in the data set with Sagittaria pygmaea, L. (0.0320 kg/ha) was determined as 0.0; with Sagittaria pygmaea, L. (0.0620 kg/ha) it was 3.0; with Sagittaria pygmaea, L. (0.1250 kg/ha), 5.0; in the data set with Sagittaria pygmaea, L. (0.2500 kg/ha), 7.0. For the same compound, the “ORYSAT herbicidal rating” value in data set [2] (0.0320 kg/ha) is reported as 2.0; in data set [2] (0.0620 kg/ha), 3.0; in data set [2] (0.1250 kg/ha), 5.0; in data set [2] (0.2500 kg/ha) it was 5.0. Also, the ECHORC herbicidal rating in data set [3] (0.0320 kg/ha) worked out at 0.0; in data set [3] (0.0620 kg/ha) it was 3.0; in data set [3] (0.1250 kg/ha), 6.0; in data set [3] (0.2500 kg/ha), 9.0. Further, the CYPIR herbicidal rating in the data set with Cyperus iria (0.0320 kg/ha) came to 6.0; with Cyperus iria (0.0620 kg/ha), 6.0; in the data set with Cyperus iria (0.1250 kg/ha), 9.0; in the data set on Cyperus iria (0.2500 kg/ha), 9.0. Further, the MOOVA herbicidal rating in data set [4] (0.0320 kg/ha) amounted to 6.0; in data set [4] (0.0620 kg/ha), 7.0; in data set [4] (0.1250 kg/ha), 9.0; in data set [4] (0.2500 kg/ha), 9.0.

With `Cn1c(C(F)(F)F)cc(=O)n(-c2ccc3snc(C(=O)NS(N)(=O)=O)c3c2)c1=O` [Example 472, 1,2-Benzisothiazole-3-carboxamide, 5-[3,6-dihydro-3-methyl-2,6-dioxo-4-(trifluoromethyl)-1(2H)-pyrimidinyl]-N-sulfamoyl-], the CYPSE herbicidal rating in data set [1] (0.0320 kg/ha) is on record as 0.0; in data set [1] (0.1250 kg/ha) it was 6.0; in data set [1] (0.2500 kg/ha), 9.0. Further, the SAGPY herbicidal rating in the data set with Sagittaria pygmaea, L. (0.0320 kg/ha) is recorded as 0.0; with Sagittaria pygmaea, L. (0.0620 kg/ha), 0.0; with Sagittaria pygmaea, L. (0.1250 kg/ha) it was 2.0; with Sagittaria pygmaea, L. (0.2500 kg/ha) it was 3.0. The “ORYSAT herbicidal rating” value came out at 0.0 in data set [2] (0.0320 kg/ha), 1.0 in data set [2] (0.0620 kg/ha), 3.0 in data set [2] (0.1250 kg/ha) and 6.0 in data set [2] (0.2500 kg/ha). The ECHORC herbicidal rating in data set [3] (0.0320 kg/ha) was 3.0; in data set [3] (0.0620 kg/ha) it was 3.0; in data set [3] (0.1250 kg/ha), 4.0; in data set [3] (0.2500 kg/ha), 4.0. The CYPIR herbicidal rating in the data set with Cyperus iria (0.0320 kg/ha) was 4.0; with Cyperus iria (0.0620 kg/ha), 4.0; in the data set with Cyperus iria (0.1250 kg/ha), 5.0; in the data set on Cyperus iria (0.2500 kg/ha), 6.0. Besides, the MOOVA herbicidal rating in data set [4] (0.0320 kg/ha) turned out to be 5.0; in data set [4] (0.0620 kg/ha) it was 6.0; in data set [4] (0.1250 kg/ha) it was 7.0; in data set [4] (0.2500 kg/ha), 7.0.

With `COCOCc1nsc2ccc(-n3c(=O)cc(C(F)(F)F)n(C)c3=O)cc12` [Example 478, 2,4(1H,3H)-Pyrimidinedione, 3-{3-[(methoxymethoxy)methyl]-1,2-benzisothiazol-5-yl}-1-methyl-6-(trifluoromethyl)-], the CYPSE herbicidal rating is 6.0 in data set [1] (0.0320 kg/ha), 7.0 in data set [1] (0.0620 kg/ha), 9.0 in data set [1] (0.1250 kg/ha) and 9.0 in data set [1] (0.2500 kg/ha). Besides, the SAGPY herbicidal rating in the data set with Sagittaria pygmaea, L. (0.0320 kg/ha) is on record as 6.0; in the data set with Sagittaria pygmaea, L. (0.0620 kg/ha), 6.0; with Sagittaria pygmaea, L. (0.1250 kg/ha), 9.0; in the data set on Sagittaria pygmaea, L. (0.2500 kg/ha), 9.0. Further, the “ORYSAT herbicidal rating” value in data set [2] (0.0320 kg/ha) worked out at 7.0; in data set [2] (0.0620 kg/ha), 9.0; in data set [2] (0.1250 kg/ha) it was 9.0; in data set [2] (0.2500 kg/ha), 9.0. For the same compound, the ECHORC herbicidal rating in data set [3] (0.0320 kg/ha) is 4.0; in data set [3] (0.0620 kg/ha) it was 6.0; in data set [3] (0.1250 kg/ha) it was 7.0; in data set [3] (0.2500 kg/ha), 9.0. The CYPIR herbicidal rating is on record as 4.0 in the data set on Cyperus iria (0.0320 kg/ha), 9.0 in the data set on Cyperus iria (0.0620 kg/ha), 9.0 with Cyperus iria (0.1250 kg/ha) and 9.0 in the data set with Cyperus iria (0.2500 kg/ha). For the same compound, the MOOVA herbicidal rating in data set [4] (0.0320 kg/ha) was found to be 7.0; in data set [4] (0.0620 kg/ha) it was 9.0; in data set [4] (0.1250 kg/ha), 9.0; in data set [4] (0.2500 kg/ha) it was 9.0.

On to `COC(=O)COc1cc(C)ccc1-c1nsc2cc(F)c(-n3c(=O)cc(C(F)(F)F)n(C)c3=O)cc12` [Example 479, Acetic acid, {{6-{5-[3,6-dihydro-3-methyl-2,6-dioxo-4-(trifluoromethyl)-1(2H)-pyrimidinyl]-6-fluoro-1,2-benzisothiazol-3-yl}-m-tolyl}oxy}-, methyl ester], for which the CYPSE herbicidal rating in data set [1] (0.0320 kg/ha) is 0.0; in data set [1] (0.0620 kg/ha), 7.0; in data set [1] (0.1250 kg/ha) it was 9.0; in data set [1] (0.2500 kg/ha) it was 9.0. Besides, the SAGPY herbicidal rating with Sagittaria pygmaea, L. (0.0320 kg/ha) is listed as 3.0; with Sagittaria pygmaea, L. (0.0620 kg/ha) it was 5.0; in the data set with Sagittaria pygmaea, L. (0.1250 kg/ha) it was 6.0; in the data set on Sagittaria pygmaea, L. (0.2500 kg/ha), 8.0. The “ORYSAT herbicidal rating” value in data set [2] (0.0320 kg/ha) worked out at 5.0; in data set [2] (0.0620 kg/ha), 5.0; in data set [2] (0.1250 kg/ha) it was 9.0; in data set [2] (0.2500 kg/ha), 9.0. Besides, the ECHORC herbicidal rating was 7.0 in data set [3] (0.0320 kg/ha), 7.0 in data set [3] (0.0620 kg/ha), 9.0 in data set [3] (0.1250 kg/ha) and 9.0 in data set [3] (0.2500 kg/ha). For the same compound, the CYPIR herbicidal rating in the data set with Cyperus iria (0.0320 kg/ha) turned out to be 0.0; in the data set with Cyperus iria (0.0620 kg/ha) it was 0.0; with Cyperus iria (0.1250 kg/ha), 5.0; in the data set on Cyperus iria (0.2500 kg/ha), 9.0. Also, the MOOVA herbicidal rating in data set [4] (0.0320 kg/ha) amounted to 0.0; in data set [4] (0.0620 kg/ha), 7.0; in data set [4] (0.1250 kg/ha) it was 9.0; in data set [4] (0.2500 kg/ha), 9.0.
